Blank lines part the entries; values can stand above or below the compound they belong to.
Tests used:
[1] = target: Protein kinase C eta type (Homo sapiens) (UniProt P24723); assay: Selectivity interaction (SelectScreen profiling (Invitrogen)) EUB0000607a PRKCH; conditions: at 2 µM
[2] = target: Vascular endothelial growth factor receptor 2 (Homo sapiens, UniProt P35968); assay: Selectivity interaction (Upstate Kinase Profiler service (Millipore)) EUB0000056c KDR; conditions: at 1 µM
[3] = target: BDNF/NT-3 growth factors receptor (Homo sapiens) (UniProt Q16620); conditions: at 10 µM
[4] = target: Casein kinase I isoform gamma-2 (Homo sapiens) (UniProt P78368); assay: Selectivity interaction (Kinase panel (Invitrogen)) EUB0000639a CSNK1G2; conditions: at 200 nM
[5] = target: T1, Mitogen-activated protein kinase kinase kinase kinase 2 (Homo sapiens) (UniProt Q12851); assay: Selectivity interaction (ActivX KiNativ screen (kinase selectivity in THP-1 cell lysates)) EUB0000639a MAP4K2; type: subcellular; conditions: lysate, at 0.2 µM
T1 sequence (whole entry): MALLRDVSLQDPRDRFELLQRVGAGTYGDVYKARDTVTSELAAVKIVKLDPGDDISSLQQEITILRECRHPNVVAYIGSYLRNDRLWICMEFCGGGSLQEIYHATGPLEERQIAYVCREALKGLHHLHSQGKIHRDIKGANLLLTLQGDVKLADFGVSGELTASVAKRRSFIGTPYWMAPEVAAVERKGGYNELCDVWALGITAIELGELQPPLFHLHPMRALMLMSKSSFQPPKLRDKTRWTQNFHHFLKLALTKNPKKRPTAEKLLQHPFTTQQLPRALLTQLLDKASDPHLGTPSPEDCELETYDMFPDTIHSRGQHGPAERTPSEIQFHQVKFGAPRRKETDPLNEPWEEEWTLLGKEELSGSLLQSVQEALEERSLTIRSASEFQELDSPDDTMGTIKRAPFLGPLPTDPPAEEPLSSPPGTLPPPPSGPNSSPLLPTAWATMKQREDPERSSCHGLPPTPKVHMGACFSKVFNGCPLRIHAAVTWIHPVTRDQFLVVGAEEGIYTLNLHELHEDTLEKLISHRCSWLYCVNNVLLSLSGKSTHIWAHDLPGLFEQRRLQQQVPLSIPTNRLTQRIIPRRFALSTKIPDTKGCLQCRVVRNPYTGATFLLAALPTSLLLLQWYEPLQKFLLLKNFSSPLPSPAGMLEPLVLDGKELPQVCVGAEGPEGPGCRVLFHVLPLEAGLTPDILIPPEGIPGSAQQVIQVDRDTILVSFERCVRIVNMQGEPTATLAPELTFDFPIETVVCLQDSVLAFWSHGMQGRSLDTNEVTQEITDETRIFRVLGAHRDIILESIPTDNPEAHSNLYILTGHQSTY

[6] = target: Platelet-derived growth factor receptor alpha (Homo sapiens, UniProt P16234); assay: Selectivity interaction (Kinase panel (Invitrogen)) EUB0000639a PDGFRA; conditions: at 200 nM
Sequence of Platelet-derived growth factor receptor alpha (P16234 whole entry): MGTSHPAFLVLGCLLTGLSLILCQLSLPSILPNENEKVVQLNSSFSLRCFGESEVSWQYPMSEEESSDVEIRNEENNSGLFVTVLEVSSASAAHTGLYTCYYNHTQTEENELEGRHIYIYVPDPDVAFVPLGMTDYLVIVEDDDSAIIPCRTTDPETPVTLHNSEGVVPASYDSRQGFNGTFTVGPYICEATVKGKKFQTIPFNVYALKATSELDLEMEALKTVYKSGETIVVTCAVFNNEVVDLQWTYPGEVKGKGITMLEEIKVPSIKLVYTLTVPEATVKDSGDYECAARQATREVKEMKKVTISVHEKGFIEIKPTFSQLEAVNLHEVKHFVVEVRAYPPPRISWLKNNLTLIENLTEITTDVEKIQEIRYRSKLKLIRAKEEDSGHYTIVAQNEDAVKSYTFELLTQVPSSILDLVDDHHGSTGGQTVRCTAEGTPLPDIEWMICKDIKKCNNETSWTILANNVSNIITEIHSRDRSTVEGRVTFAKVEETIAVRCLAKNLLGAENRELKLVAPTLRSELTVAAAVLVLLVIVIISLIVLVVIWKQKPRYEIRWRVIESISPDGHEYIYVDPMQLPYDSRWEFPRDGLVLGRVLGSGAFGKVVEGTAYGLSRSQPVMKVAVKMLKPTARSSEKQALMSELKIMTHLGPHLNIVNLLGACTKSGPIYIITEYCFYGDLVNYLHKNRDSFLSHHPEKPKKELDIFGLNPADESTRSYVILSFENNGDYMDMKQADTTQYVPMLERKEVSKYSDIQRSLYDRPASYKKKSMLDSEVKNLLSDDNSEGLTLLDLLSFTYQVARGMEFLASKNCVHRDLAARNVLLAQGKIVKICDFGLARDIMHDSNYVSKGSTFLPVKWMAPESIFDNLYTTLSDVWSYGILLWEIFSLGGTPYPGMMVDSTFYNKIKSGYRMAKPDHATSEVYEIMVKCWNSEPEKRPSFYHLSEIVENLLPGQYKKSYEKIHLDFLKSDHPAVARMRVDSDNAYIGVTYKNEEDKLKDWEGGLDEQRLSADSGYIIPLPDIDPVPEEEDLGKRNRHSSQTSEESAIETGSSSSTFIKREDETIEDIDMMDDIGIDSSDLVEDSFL

[7] = target: Protein arginine N-methyltransferase 5 (Homo sapiens, UniProt O14744); assay: Selectivity interaction (Methyltransferase screen (Scintillation proximity assays)) EUB0000255b PRMT5
Sequence of Protein arginine N-methyltransferase 5 (O14744 whole entry): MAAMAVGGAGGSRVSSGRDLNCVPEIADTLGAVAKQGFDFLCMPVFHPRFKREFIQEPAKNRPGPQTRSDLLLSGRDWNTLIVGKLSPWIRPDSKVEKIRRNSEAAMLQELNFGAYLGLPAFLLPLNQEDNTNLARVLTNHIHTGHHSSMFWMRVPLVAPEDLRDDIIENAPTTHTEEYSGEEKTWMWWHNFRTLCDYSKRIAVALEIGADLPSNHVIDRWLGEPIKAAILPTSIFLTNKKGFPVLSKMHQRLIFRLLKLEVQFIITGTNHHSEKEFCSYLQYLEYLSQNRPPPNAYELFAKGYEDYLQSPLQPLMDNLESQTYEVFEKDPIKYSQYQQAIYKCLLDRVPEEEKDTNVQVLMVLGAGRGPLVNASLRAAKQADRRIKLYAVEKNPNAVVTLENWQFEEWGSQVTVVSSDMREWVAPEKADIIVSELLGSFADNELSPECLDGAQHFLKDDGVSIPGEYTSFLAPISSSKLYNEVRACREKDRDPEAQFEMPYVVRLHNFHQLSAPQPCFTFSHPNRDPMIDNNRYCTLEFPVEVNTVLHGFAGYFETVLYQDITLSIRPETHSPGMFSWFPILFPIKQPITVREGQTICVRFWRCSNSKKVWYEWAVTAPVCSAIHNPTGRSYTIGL

[8] = target: MAP kinase-activated protein kinase 3 (Homo sapiens) (UniProt Q16644); assay: Selectivity interaction (ProQinase) EUB0000171b MAPKAPK3
Sequence of MAP kinase-activated protein kinase 3 (Homo sapiens) (Q16644 whole entry, looked up): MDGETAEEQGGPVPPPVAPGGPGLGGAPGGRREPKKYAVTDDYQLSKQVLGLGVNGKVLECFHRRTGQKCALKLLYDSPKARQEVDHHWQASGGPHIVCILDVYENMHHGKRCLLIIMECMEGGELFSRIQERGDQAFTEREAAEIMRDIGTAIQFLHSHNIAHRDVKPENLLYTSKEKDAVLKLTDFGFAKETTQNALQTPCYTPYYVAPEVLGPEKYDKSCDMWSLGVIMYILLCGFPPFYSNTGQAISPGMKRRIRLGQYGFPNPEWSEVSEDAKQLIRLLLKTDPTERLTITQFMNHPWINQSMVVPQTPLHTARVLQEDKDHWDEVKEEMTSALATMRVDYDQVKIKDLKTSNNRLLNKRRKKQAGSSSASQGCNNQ

[9] = target: Serine/threonine-protein kinase MARK2 (Homo sapiens) (UniProt Q7KZI7); assay: Selectivity interaction (ProQinase) EUB0000171b MARK2
Sequence of Serine/threonine-protein kinase MARK2 (Homo sapiens) (Q7KZI7 whole entry): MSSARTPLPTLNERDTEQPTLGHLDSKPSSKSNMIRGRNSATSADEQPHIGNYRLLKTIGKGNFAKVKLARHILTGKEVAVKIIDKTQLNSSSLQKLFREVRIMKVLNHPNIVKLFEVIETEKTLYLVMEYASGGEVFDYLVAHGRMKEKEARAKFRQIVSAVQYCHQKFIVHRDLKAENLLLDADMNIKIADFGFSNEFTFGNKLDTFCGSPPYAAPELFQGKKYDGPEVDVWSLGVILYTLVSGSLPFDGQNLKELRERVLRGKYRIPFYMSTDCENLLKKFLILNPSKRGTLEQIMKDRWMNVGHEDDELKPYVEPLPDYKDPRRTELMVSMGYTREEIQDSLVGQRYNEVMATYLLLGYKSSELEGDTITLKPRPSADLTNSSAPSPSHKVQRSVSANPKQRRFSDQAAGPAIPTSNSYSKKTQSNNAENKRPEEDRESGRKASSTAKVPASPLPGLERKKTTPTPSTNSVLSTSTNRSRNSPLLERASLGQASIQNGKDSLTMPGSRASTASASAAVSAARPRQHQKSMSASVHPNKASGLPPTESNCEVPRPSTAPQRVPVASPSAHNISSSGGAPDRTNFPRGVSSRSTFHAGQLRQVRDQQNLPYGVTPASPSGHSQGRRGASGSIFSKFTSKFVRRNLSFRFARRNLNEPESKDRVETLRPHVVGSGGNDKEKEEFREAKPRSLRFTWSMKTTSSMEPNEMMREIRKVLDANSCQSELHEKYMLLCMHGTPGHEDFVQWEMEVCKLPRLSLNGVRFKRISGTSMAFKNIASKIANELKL

[10] = target: TGF-beta receptor type-2 (Homo sapiens) (UniProt P37173); assay: Selectivity interaction (ProQinase) EUB0000171b TGFBR2
Sequence of TGF-beta receptor type-2 (Homo sapiens) (P37173 whole entry): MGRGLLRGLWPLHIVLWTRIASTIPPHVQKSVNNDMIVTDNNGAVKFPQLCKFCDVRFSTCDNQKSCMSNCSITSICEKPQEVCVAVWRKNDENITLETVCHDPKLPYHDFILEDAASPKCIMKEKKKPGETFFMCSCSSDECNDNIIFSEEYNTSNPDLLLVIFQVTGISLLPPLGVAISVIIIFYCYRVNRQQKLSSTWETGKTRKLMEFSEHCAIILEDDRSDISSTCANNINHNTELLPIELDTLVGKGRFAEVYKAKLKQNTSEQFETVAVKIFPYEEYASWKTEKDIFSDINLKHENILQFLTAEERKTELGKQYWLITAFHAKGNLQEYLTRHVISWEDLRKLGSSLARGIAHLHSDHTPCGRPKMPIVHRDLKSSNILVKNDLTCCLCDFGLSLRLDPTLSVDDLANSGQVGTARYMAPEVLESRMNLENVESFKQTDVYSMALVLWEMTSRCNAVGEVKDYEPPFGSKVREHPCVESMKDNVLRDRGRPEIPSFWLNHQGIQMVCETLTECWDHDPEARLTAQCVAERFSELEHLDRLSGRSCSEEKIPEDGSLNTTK

[11] = target: Mitogen-activated protein kinase kinase kinase 14 (Homo sapiens) (UniProt Q99558); assay: Selectivity interaction (KinomeScan (DiscoverX)) EUB0000695a MAP3K14; conditions: at 100 nM
[12] = target: Tyrosine-protein kinase SYK (Homo sapiens, UniProt P43405); assay: Selectivity interaction (KinaseProfiler screening (Millipore)) EUB0000601a SYK; conditions: at 3 µM
[13] = target: Calcium/calmodulin-dependent protein kinase type II subunit delta (Homo sapiens) (UniProt Q13557); assay: Selectivity interaction (Kinase panel (DSF assay)) EUB0001558a CAMK2D
[14] = target: Cyclin-dependent kinase 3 (Homo sapiens) (UniProt Q00526); assay: Selectivity interaction (KinomeScan (DiscoverX)) EUB0000655a CDK3; conditions: at 10 µM
Sequence of Cyclin-dependent kinase 3 (Homo sapiens) (Q00526 whole entry, looked up): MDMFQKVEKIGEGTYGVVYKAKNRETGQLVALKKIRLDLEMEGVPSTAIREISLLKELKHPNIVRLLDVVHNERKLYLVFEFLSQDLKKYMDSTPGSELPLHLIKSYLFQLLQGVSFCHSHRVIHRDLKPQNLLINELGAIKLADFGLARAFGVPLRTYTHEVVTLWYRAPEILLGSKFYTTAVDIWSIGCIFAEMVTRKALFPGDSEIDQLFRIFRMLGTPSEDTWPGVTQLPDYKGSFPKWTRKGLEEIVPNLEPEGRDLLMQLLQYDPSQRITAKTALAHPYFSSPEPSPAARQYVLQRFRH

[15] = target: T2, NUAK family SNF1-like kinase 2 (Homo sapiens) (UniProt Q9H093); assay: Selectivity interaction (KinomeScan (DiscoverX)) EUB0000655a NUAK2; conditions: at 10 µM
T2 sequence (whole entry): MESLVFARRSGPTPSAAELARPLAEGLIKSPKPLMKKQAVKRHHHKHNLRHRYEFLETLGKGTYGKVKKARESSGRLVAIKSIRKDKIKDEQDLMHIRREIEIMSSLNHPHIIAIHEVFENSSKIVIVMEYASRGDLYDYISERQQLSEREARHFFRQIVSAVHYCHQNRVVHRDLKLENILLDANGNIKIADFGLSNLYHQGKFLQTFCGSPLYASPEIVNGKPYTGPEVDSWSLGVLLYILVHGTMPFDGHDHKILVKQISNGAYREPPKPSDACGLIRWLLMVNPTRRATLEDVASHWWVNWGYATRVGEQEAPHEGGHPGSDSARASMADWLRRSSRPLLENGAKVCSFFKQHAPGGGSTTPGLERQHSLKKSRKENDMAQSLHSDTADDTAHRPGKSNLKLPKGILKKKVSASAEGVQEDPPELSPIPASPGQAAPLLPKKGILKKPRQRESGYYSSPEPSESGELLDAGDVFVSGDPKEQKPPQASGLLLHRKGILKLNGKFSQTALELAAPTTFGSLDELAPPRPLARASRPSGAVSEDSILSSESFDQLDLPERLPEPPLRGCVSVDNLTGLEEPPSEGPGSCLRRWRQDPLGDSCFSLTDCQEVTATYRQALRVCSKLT

[16] = target: Serine/threonine-protein kinase 32A (Homo sapiens) (UniProt Q8WU08); assay: Selectivity interaction (KinomeScan (DiscoverX)) EUB0000045b STK32A
Sequence of Serine/threonine-protein kinase 32A (Homo sapiens) (Q8WU08 whole entry): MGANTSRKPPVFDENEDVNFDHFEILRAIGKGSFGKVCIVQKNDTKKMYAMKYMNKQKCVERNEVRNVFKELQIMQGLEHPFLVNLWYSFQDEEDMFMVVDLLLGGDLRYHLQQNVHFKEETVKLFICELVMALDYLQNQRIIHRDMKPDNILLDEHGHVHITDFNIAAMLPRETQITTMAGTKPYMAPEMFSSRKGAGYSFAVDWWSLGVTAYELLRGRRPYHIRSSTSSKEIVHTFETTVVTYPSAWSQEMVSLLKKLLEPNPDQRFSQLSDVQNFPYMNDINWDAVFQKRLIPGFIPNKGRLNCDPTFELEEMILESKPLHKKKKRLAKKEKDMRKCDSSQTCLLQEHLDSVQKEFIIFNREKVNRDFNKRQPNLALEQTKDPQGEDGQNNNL

[17] = target: Wee1-like protein kinase 2 (Homo sapiens) (UniProt P0C1S8); assay: Selectivity interaction (KinomeScan (DiscoverX)) EUB0000092b WEE2; conditions: at 10 µM
Sequence of Wee1-like protein kinase 2 (Homo sapiens) (P0C1S8 whole entry, looked up): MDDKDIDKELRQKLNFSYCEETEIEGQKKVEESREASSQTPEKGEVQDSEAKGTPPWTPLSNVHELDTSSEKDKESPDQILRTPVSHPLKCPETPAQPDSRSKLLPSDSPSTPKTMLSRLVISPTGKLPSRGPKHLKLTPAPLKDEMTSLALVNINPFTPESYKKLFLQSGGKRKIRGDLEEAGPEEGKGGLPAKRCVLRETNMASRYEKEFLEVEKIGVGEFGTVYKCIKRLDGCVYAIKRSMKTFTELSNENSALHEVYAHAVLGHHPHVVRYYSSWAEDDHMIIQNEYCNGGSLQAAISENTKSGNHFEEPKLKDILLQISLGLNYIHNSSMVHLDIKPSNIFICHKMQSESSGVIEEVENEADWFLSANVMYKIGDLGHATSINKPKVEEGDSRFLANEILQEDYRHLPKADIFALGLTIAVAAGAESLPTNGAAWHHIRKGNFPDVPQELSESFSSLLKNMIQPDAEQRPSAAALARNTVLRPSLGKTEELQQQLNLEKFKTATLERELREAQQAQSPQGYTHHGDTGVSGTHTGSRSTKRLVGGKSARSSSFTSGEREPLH

[18] = target: Dual specificity tyrosine-phosphorylation-regulated kinase 1A (Homo sapiens, UniProt Q13627); conditions: at 10 µM

Structure (SMILES): CNC(=O)Nc1ccc(-c2nc(N3CC4CCC(C3)O4)c3cnn(C4CCC5(CC4)OCCO5)c3n2)cc1
% of inhibition [1]: 14%

% of inhibition [2]: 32%
Structure (SMILES): Cc1ccc(-c2ccc3c(ccc4sc5c(c43)NC[C@@H](C)NC5=O)n2)cn1

% of control [3]: 100%
Structure (SMILES): CCN(CC)CCCCNc1ncc2cc(-c3cc(OC)cc(OC)c3)c(NC(=O)NC(C)(C)C)nc2n1

% of inhibition [4]: 64.8% | % of inhibition [5]: 10.3% | % of inhibition [6]: 1.87%
Structure (SMILES): CC[C@@H]1[C@H](F)C(=O)N[C@@H]1COc1nccc2cc(C(N)=O)c(OC)cc12 [ZIMLOVISERTIB]

Structure (SMILES): COCCN1CCC(c2cc(CN(C)C(=O)c3cccc(Oc4ccccc4)c3)ccn2)CC1
% activity ([7]; at 1 µM): > 95% | % activity ([7]; at 10 µM): > 90%

% of control ([8]; at 1 µM): 100% | % of control ([8]; at 5 µM): 65% | % of control ([9]; at 1 µM): 93% | % of control ([9]; at 5 µM): 84% | % of control ([10]; at 1 µM): 53% | % of control ([10]; at 5 µM): 4%
Structure (SMILES): C=CC(=O)Nc1cccc(C(=O)Nc2ccc(Nc3cc(-c4[nH]c(SC)nc4C)ccn3)cc2)c1

Structure (SMILES): Cc1cc(F)c(C(=O)Nc2cccc(-c3nncn3C(C)C)n2)cc1-n1cnc(C2CC2)c1
% of control [11]: 36%

% of inhibition [12]: 50%
Structure (SMILES): CCc1cc(Nc2nccc(-c3c(-c4ccc(OC)c(C(=O)Nc5c(F)cccc5F)c4)nc4ccccn34)n2)c(OC)cc1N1CCC(N2CCN(S(C)(=O)=O)CC2)CC1

Structure (SMILES): CC(C)(O)[C@H](F)CN1Cc2cc(NC(=O)c3cnn4cccnc34)c(N3CCOCC3)cc2C1=O
dTM [13]: 0.3 K

Structure (SMILES): CN(C)CCOc1ccc(-c2nc(-c3ccncc3)c(-c3ccc4c(c3)CC/C4=N\O)[nH]2)cc1
% of control [14]: 98% | % of control [15]: 95%

Structure (SMILES): C=CC(=O)Nc1cc(-n2c(=O)ccc3cnc4ccc(-c5ccc(NS(C)(=O)=O)cc5)cc4c32)ccc1C
% of control ([16]; at 1 µM): 100% | % of control ([16]; at 10 µM): 100%

Structure (SMILES): CCC(=O)N1CCN(c2ccc(-n3c(=O)ccc4cnc5ccc(-c6cnc7ccccc7c6)cc5c43)cc2C(F)(F)F)CC1
% of control [17]: 100%

Structure (SMILES): Cc1cc([C@@H](C)Nc2ccccc2C(=O)O)c2nc(N3CCOCC3)cc(=O)n2c1 [AZD-6482]
% of control [18]: 90%
